Laboratory results: patent US9695155B2, “Herbicidal substituted pyrimidinyloxy benzene compounds” (E. I. DU PONT DE NEMOURS AND COMPANY, priority 2013, dated 2017)

Assays:
[1] = test system: barnyardgrass; experiment: Test A preemergence; type: in vivo, Echinochloa crus-galli
In short: (§1)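 Pre- and postemergence greenhouse screen. Soil: loam + sand. Spray carrier: solvent mixture, non-phytotoxic, with surfactant. Post timing at 1–2 leaves, height 2–10 cm. Readout: visual injury on a 0–100 scale roughly 10 days after application, untreated plants as reference.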

[2] = test system: giant foxtail; experiment: Test A preemergence; type: in vivo, Setaria faberii
In short: as §1

[3] = test system: pigweed; experiment: Test A preemergence; type: in vivo, Amaranthus retroflexus
In short: as §1

[4] = test system: pigweed; experiment: Test A postemergence; type: in vivo, Amaranthus retroflexus
In short: as §1

[5] = test system: blackgrass; experiment: Test C postemergence; type: in vivo, Alopecurus myosuroides
In short: (§2)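 Injury was assessed visually against controls 13 to 15 days after application, with 0 meaning no effect and 100 full control; missing entries are shown as a dash. Preemergence sprays hit seeded loam–sand soil, postemergence sprays hit 1- to 4-leaf plants.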

[6] = test system: galium; experiment: Test C postemergence; type: in vivo, Galium aparine
In short: as §2

[7] = test system: large (Lg) crabgrass; experiment: Test C postemergence; type: in vivo, Digitaria sanguinalis
In short: as §2

[8] = test system: johnsongrass; experiment: Test C postemergence; type: in vivo, Sorghum halepense
In short: as §2

[9] = test system: lambsquarters; experiment: Test C postemergence; type: in vivo, Chenopodium album
In short: as §2

[10] = test system: barnyardgrass; experiment: Test C postemergence; type: in vivo, Echinochloa crus-galli
In short: as §2

[11] = test system: oilseed rape; experiment: Test C postemergence; type: in vivo, Brassica napus
In short: as §2

[12] = test system: waterhemp; experiment: Test C postemergence; type: in vivo, Amaranthus rudis
In short: as §2

[13] = test system: wild oat; experiment: Test C postemergence; type: in vivo, Avena fatua
In short: as §2

[14] = 1000 g ai/ha, 0 to 100 scale, 0 no effect, 100 complete control
[15] = 1000 g ai/ha, 0 to 100 scale, 0 no effect, 100 complete control, approx. 10 days
[16] = 16 g ai/ha, postemergence, 0 is no effect, 100 is complete control
[17] = 125 g ai/ha, postemergence, visual rating, scale 0 to 100 (0 no effect, 100 complete control)
[18] = Postemergence, 31 g ai/ha, scale 0 to 100 (0 no effect, 100 complete control), 13 to 15 days
[19] = Postemergence, 62 g ai/ha, scale 0 to 100 (0 no effect, 100 complete control)
[20] = 31 g ai/ha, postemergence, visual rating, scale 0 to 100 (0 no effect, 100 complete control), 13 to 15 days

SMILES: FCc1cn(-c2ccccc2Oc2ncc(Cl)cn2)nn1 [Compound 123]
- Plant response rating, Barnyardgrass [1, 14]: 100
- Foxtail, Giant plant response rating [2, 15]: 100
- Pigweed plant response rating [3, 15]: 100
- Plant response rating, Pigweed [4, 14]: 100
- Plant response rating (0 to 100), Blackgrass [5, 16]: 0
- Plant response rating, Blackgrass [5, 17]: 0
- Plant response rating, Blackgrass [5, 18]: 0
- Plant response rating, Blackgrass [5, 19]: 0
- Plant response rating (0 to 100), Galium [6, 16]: 40
- Plant response rating, Galium [6, 17]: 90
- Plant response rating, Galium [6, 19]: 85
- Plant response rating (0 to 100), Crabgrass, Large [7, 16]: 0
- Plant response rating, Crabgrass, Large [7, 17]: 5
- Plant response rating, Crabgrass, Large [7, 19]: 5
- Plant response rating (0 to 100), Johnsongrass [8, 16]: 10
- Plant response rating, Johnsongrass [8, 17]: 10
- Plant response rating, Johnsongrass [8, 19]: 10
- Plant response rating (0 to 100), Lambsquarters [9, 16]: 60
- Plant response rating, Lambsquarters [9, 17]: 85
- Plant response rating, Lambsquarters [9, 19]: 85
- Plant response rating (0 to 100), Barnyardgrass [10, 16]: 10
- Plant response rating, Barnyardgrass [10, 17]: 15
- Plant response rating, Barnyardgrass [10, 18]: 15
- Plant response rating, Barnyardgrass [10, 19]: 15
- Plant response rating (0 to 100), Oilseed Rape [11, 16]: 30
- Plant response rating, Oilseed Rape [11, 17]: 70
- Plant response rating, Oilseed Rape [11, 19]: 60
- Plant response rating (0 to 100), Waterhemp [12, 16]: 25
- Plant response rating, Waterhemp [12, 17]: 80
- Plant response rating, Waterhemp [12, 19]: 80
- Plant response rating (0 to 100), Oat, Wild [13, 16]: 0
- Plant response rating, Oat, Wild [13, 17]: 0
- Plant response rating, Oat, Wild [13, 19]: 0

SMILES: FC(F)c1cn(-c2ccccc2Oc2ncc(Cl)cn2)nn1 [Compound 147, 5-chloro-2-[2-[4-(difluoromethyl)-1H-1,2,3-triazol-1-yl]phenoxy]pyrimidine]
- pest or weed control at 125 g/ha ([1]; Echinochloa crus-galli, pre-emergence, 240 h, 125 g ai/ha, 0 to 100 scale where 0 is no effect and 100 is complete control, read-out: Plant response rating, Barnyardgrass): 100%
- pest or weed control at 500 g/ha ([1]; Echinochloa crus-galli, pre-emergence, 240 h, 500 g ai/ha, 0 to 100 scale where 0 is no effect and 100 is complete control, read-out: Barnyardgrass plant response rating): 100%
- pest or weed control at 125 g/ha ([2]; Setaria faberi, pre-emergence, 240 h, 125 g ai/ha, 0 to 100 scale where 0 is no effect and 100 is complete control, read-out: Plant response rating, Foxtail, Giant): 100%
- pest or weed control at 500 g/ha ([2]; Setaria faberi, pre-emergence, 240 h, 500 g ai/ha, 0 to 100 scale where 0 is no effect and 100 is complete control, read-out: Foxtail, Giant plant response rating): 100%
- pest or weed control at 125 g/ha ([3]; Amaranthus retroflexus, pre-emergence, 125 g ai/ha, 0 to 100 scale where 0 is no effect and 100 is complete control, read-out: Plant response rating, Pigweed): 100%
- pest or weed control at 500 g/ha ([3]; Amaranthus retroflexus, pre-emergence, 240 h, 500 g ai/ha, 0 to 100 scale where 0 is no effect and 100 is complete control, read-out: Pigweed plant response rating): 100%
- pest or weed control at 500 g/ha ([4]; Amaranthus retroflexus, post-emergence, 500 g ai/ha, 0 to 100 scale where 0 is no effect and 100 is complete control, read-out: Plant response rating, Pigweed): 100%
- pest or weed control at 125 g/ha ([4]; Amaranthus retroflexus, post-emergence, 240 h, 125 g ai/ha, 0 to 100 scale where 0 is no effect and 100 is complete control, read-out: Pigweed plant response rating): 100%
- pest or weed control at 16 g/ha ([5]; Alopecurus myosuroides, post-emergence, 16 g ai/ha, postemergence, 0 is no effect, 100 is complete control, read-out: Plant response rating (0 to 100), Blackgrass): 0%
- pest or weed control at 31 g/ha ([5]; Alopecurus myosuroides, post-emergence, 31 g ai/ha, postemergence, visual rating, scale 0 to 100 (0 no effect, 100 complete control), 13 to 15 days, read-out: Blackgrass plant response rating): 0%
- pest or weed control at 125 g/ha ([5]; Alopecurus myosuroides, post-emergence, 125 g ai/ha, postemergence, visual rating, scale 0 to 100 (0 no effect, 100 complete control), read-out: Plant response rating, Blackgrass): 10%
- pest or weed control at 62 g/ha ([5]; Alopecurus myosuroides, post-emergence, Postemergence, 62 g ai/ha, scale 0 to 100 (0 no effect, 100 complete control), read-out: Plant response rating, Blackgrass): 0%
- pest or weed control at 16 g/ha ([6]; Galium, post-emergence, 16 g ai/ha, postemergence, 0 is no effect, 100 is complete control, read-out: Plant response rating (0 to 100), Galium): 85%
- pest or weed control at 31 g/ha ([6]; Galium, post-emergence, 31 g ai/ha, postemergence, visual rating, scale 0 to 100 (0 no effect, 100 complete control), 13 to 15 days, read-out: Galium plant response rating): 90%
- pest or weed control at 125 g/ha ([6]; Galium, post-emergence, 125 g ai/ha, postemergence, visual rating, scale 0 to 100 (0 no effect, 100 complete control), read-out: Plant response rating, Galium): 90%
- pest or weed control at 62 g/ha ([6]; Galium, post-emergence, Postemergence, 62 g ai/ha, scale 0 to 100 (0 no effect, 100 complete control), read-out: Plant response rating, Galium): 90%
- pest or weed control at 16 g/ha ([7]; Digitaria sanguinalis, post-emergence, 16 g ai/ha, postemergence, 0 is no effect, 100 is complete control, read-out: Plant response rating (0 to 100), Crabgrass, Large): 5%
- pest or weed control at 31 g/ha ([7]; Digitaria sanguinalis, post-emergence, 31 g ai/ha, postemergence, visual rating, scale 0 to 100 (0 no effect, 100 complete control), 13 to 15 days, read-out: Crabgrass, Large plant response rating): 5%
- pest or weed control at 125 g/ha ([7]; Digitaria sanguinalis, post-emergence, 125 g ai/ha, postemergence, visual rating, scale 0 to 100 (0 no effect, 100 complete control), read-out: Plant response rating, Crabgrass, Large): 10%
- pest or weed control at 62 g/ha ([7]; Digitaria sanguinalis, post-emergence, Postemergence, 62 g ai/ha, scale 0 to 100 (0 no effect, 100 complete control), read-out: Plant response rating, Crabgrass, Large): 10%
- Johnsongrass plant response rating [8, 20]: 5
- pest or weed control at 16 g/ha ([8]; Sorghum halepense, post-emergence, 16 g ai/ha, postemergence, 0 is no effect, 100 is complete control, read-out: Plant response rating (0 to 100), Johnsongrass): 5%
- pest or weed control at 125 g/ha ([8]; Sorghum halepense, post-emergence, 125 g ai/ha, postemergence, visual rating, scale 0 to 100 (0 no effect, 100 complete control), read-out: Plant response rating, Johnsongrass): 10%
- pest or weed control at 62 g/ha ([8]; Sorghum halepense, post-emergence, Postemergence, 62 g ai/ha, scale 0 to 100 (0 no effect, 100 complete control), read-out: Plant response rating, Johnsongrass): 5%
- Lambsquarters plant response rating [9, 20]: 75
- pest or weed control at 16 g/ha ([9]; Chenopodium album, post-emergence, 16 g ai/ha, postemergence, 0 is no effect, 100 is complete control, read-out: Plant response rating (0 to 100), Lambsquarters): 60%
- pest or weed control at 125 g/ha ([9]; Chenopodium album, post-emergence, 125 g ai/ha, postemergence, visual rating, scale 0 to 100 (0 no effect, 100 complete control), read-out: Plant response rating, Lambsquarters): 98%
- pest or weed control at 62 g/ha ([9]; Chenopodium album, post-emergence, Postemergence, 62 g ai/ha, scale 0 to 100 (0 no effect, 100 complete control), read-out: Plant response rating, Lambsquarters): 90%
- pest or weed control at 16 g/ha ([10]; Echinochloa crus-galli, post-emergence, 16 g ai/ha, postemergence, 0 is no effect, 100 is complete control, read-out: Plant response rating (0 to 100), Barnyardgrass): 0%
- pest or weed control at 31 g/ha ([10]; Echinochloa crus-galli, post-emergence, 31 g ai/ha, postemergence, visual rating, scale 0 to 100 (0 no effect, 100 complete control), 13 to 15 days, read-out: Barnyardgrass plant response rating): 5%
- pest or weed control at 125 g/ha ([10]; Echinochloa crus-galli, post-emergence, 125 g ai/ha, postemergence, visual rating, scale 0 to 100 (0 no effect, 100 complete control), read-out: Plant response rating, Barnyardgrass): 10%
- pest or weed control at 62 g/ha ([10]; Echinochloa crus-galli, post-emergence, Postemergence, 62 g ai/ha, scale 0 to 100 (0 no effect, 100 complete control), read-out: Plant response rating, Barnyardgrass): 5%
- Oilseed Rape plant response rating [11, 20]: 40
- plant injury at 16 g/ha ([11]; Brassica napus, post-emergence, 16 g ai/ha, postemergence, 0 is no effect, 100 is complete control, read-out: Plant response rating (0 to 100), Oilseed Rape): 25%
- plant injury at 125 g/ha ([11]; Brassica napus, post-emergence, 125 g ai/ha, postemergence, visual rating, scale 0 to 100 (0 no effect, 100 complete control), read-out: Plant response rating, Oilseed Rape): 95%
- plant injury at 62 g/ha ([11]; Brassica napus, post-emergence, Postemergence, 62 g ai/ha, scale 0 to 100 (0 no effect, 100 complete control), read-out: Plant response rating, Oilseed Rape): 75%
- Waterhemp plant response rating [12, 20]: 55
- pest or weed control at 16 g/ha ([12]; Amaranthus tuberculatus, post-emergence, 16 g ai/ha, postemergence, 0 is no effect, 100 is complete control, read-out: Plant response rating (0 to 100), Waterhemp): 40%
- pest or weed control at 125 g/ha ([12]; Amaranthus tuberculatus, post-emergence, 125 g ai/ha, postemergence, visual rating, scale 0 to 100 (0 no effect, 100 complete control), read-out: Plant response rating, Waterhemp): 70%
- pest or weed control at 62 g/ha ([12]; Amaranthus tuberculatus, post-emergence, Postemergence, 62 g ai/ha, scale 0 to 100 (0 no effect, 100 complete control), read-out: Plant response rating, Waterhemp): 85%
- Oat, Wild plant response rating [13, 20]: 0
- pest or weed control at 16 g/ha ([13]; Avena fatua, post-emergence, 16 g ai/ha, postemergence, 0 is no effect, 100 is complete control, read-out: Plant response rating (0 to 100), Oat, Wild): 0%
- pest or weed control at 125 g/ha ([13]; Avena fatua, post-emergence, 125 g ai/ha, postemergence, visual rating, scale 0 to 100 (0 no effect, 100 complete control), read-out: Plant response rating, Oat, Wild): 5%
- pest or weed control at 62 g/ha ([13]; Avena fatua, post-emergence, Postemergence, 62 g ai/ha, scale 0 to 100 (0 no effect, 100 complete control), read-out: Plant response rating, Oat, Wild): 0%
